The values that follow come from patent US9493466B2, “Treatment of cancer with TOR kinase inhibitors” (Signal Pharmaceuticals, LLC, priority 2011, dated 2016).

The subject of one experiment is HCC1187. The experiment is described as follows: Growth inhibition assay for breast cancer. To be noted: HCC1187 (Basal, TN), 96 hours. The class given is cell-based. From the text: (§1) Growth Inhibition Assay for Breast Cancer (BC) (Compound 1). All breast cancer cell lines were maintained and tested in appropriate culture media. The seeding density for each cell line was optimized to ensure assay linearity in 384-well plates.
(§2) Increasing concentrations of Compound 1 were spotted via an acoustic dispenser (EDC ATS-100) into an empty 384-well plate. Compound 1 was spotted in a 10-point serial dilution fashion (3-fold dilution) in duplicate within the plate. The dimethyl sulfoxide (DMSO) concentration was kept constant for a final assay concentration of 0.1% DMSO. Plates were replicated for use against different cell lines and testing periods. After compound plate replication, all plates were sealed (Agilent ThermoLoc) and stored at −20° C. for up to 1 month. When ready for testing, plates were removed from the freezer, thawed, and unsealed just prior to the addition of the test cell.
(§3) Prior to testing, cells were grown and expanded in culture flasks to provide sufficient amounts of starting material. Cells were then diluted to their desired densities and added directly to the Compound 1-spotted 384-well plates. Cells were allowed to grow for 96 hours at 37° C./5% CO2. At the time of setup (t0), initial cell number was assessed via a viability assay (Cell Titer-Glo) and read for luminescence. After 96 hours, cell viability of Compound 1-treated cells was assessed via Cell Titer-Glo and read for luminescence.
(§4) Cell lines were assayed for growth inhibition by Compound 1 for at least two independent tests. All data was normalized and represented as a percentage of the DMSO-treated control cells. […] The potency of Compound 1 in different subtypes of breast cancer cell lines is shown in FIG. 7A, while the correlation of Compound 1 sensitivity to ER, HER, PIK3CA, and TP53 status is shown in FIG. 7B.

The next experiment relates to T47D. In words: Growth inhibition assay for breast cancer. The class given is cell-based. To be noted: T47D (Luminal, ER+), 96 hours.
From the text: as §1, §2, §3, §4

The test system of a further experiment is MCF10A. The experiment is described as follows: Growth inhibition assay for breast cancer. The class given is cell-based. To be noted: MCF10A (Basal, TN), 96 hours.
From the text: as §1, §2, §3, §4

Another experiment deals with MDA-MB-361. In words: Growth inhibition assay for breast cancer. The class given is cell-based. To be noted: MDA-MB-361 (Luminal, Her2+), 96 hours.
From the text: as §1, §2, §3, §4

The next experiment concerns HCC1954. In words: Growth inhibition assay for breast cancer. To be noted: HCC1954 (Basal, Her2+), 96 hours. The class given is cell-based.
From the text: as §1, §2, §3, §4

The next experiment has as its system HCC. In words: Phase 1/2 study Part B: tumor response, HCC. The class given is in vivo, human. To be noted: 14 evaluable patients. From the text:
In Part B, subjects may start Compound 1 at the MTD and/or a lower dose level based on safety, PK and PD data from Part A. Approximately 150 subjects will be treated and evaluated for safety and preliminary antitumor activity after every two cycles of therapy. Tumor types include non-small cell lung cancer (NSCLC), glioblastoma multiforme (GBM), hepatocellular carcinoma (HCC), gastrointestinal neuroendocrine tumor of non-pancreatic origin (NET), diffuse large B-cell lymphoma (DLBCL), multiple myeloma (MM), and hormone receptor positive breast cancer (HRPBC). Up to 20 subjects will be enrolled in each tumor type.
Subjects will be evaluated for efficacy every 2 cycles through cycle 6 and every 3 cycles thereafter. The primary efficacy variable is response. Tumor assessments, including imaging (CT, MRI and/or PET) of the chest and abdomen and other sites as appropriate, will be performed during Screening. Subjects with brain lesions will also have brain scans at Screening and during follow-up tumor assessments. After Screening, tumor assessments (for all tumors except multiple myeloma) will be performed on completion of Cycles 2, 4 and 6 (i.e., on Cycles 3, 5 and 7/Day 1±7 days) and then every 3 months thereafter (e.g., Cycle 10 and 13/Day 1±7 days). Tumor assessment (for multiple myeloma and only NHL/DLBCL with known or suspected marrow involvement) (bone marrow aspiration and biopsy, with PD biomarker analysis, cytogenetic analysis if abnormally present at Screening) will be performed on completion of Cycles 4, 8, 12 and 16 only (i.e., on Cycles 5, 9, 13 and 17/Day 1±7 days). Cytogenetics need not be repeated if normal at Screening. […] Subjects will be evaluated for tumor response on completion of Cycle 2, 4, 6, and so on. […]
For Part B, efficacy variables to be analyzed include tumor response at the end of treatment, the proportion of subject alive and progression-free, and duration of response. […]

In the case of `CO[C@H]1CC[C@H](N2C(=O)CNc3ncc(-c4ccc(C(C)(C)O)nc4)nc32)CC1` [Compound 1, 7-(6-(2-hydroxypropan-2-yl)pyridin-3-yl)-1-((1r,4r)-4-methoxycyclohexyl)-3,4-dihydropyrazino-[2,3-b]pyrazin-2(1H)-one], the GI50 (as a rule, the concentration at which growth is held to half of that of the control) worked out at 0.567 µM in the experiment with HCC1187; 0.0553 µM with T47D; 0.147 µM in the experiment with MCF10A; 0.0657 µM in the experiment with MDA-MB-361; 0.197 µM in the experiment on HCC1954. Besides, the “best target lesions responses (reduction)” value in the experiment on HCC is “up to 47%”. Also, in the experiment on HCC, the “patients meeting Partial Response (RECIST 1.1)” value is 2 patients. Besides, the “patients meeting at least Stable Disease (RECIST 1.1)” value in the experiment with HCC stood at 5 patients.
